Experimental data taken from patent US10961222B2, “Chemical compound of isocitrate dehydrogenase inhibitor, and application thereof” (NANJING SANHOME PHARMACEUTICAL CO., LTD., priority 2016, dated 2021).

Legend:
[1] = biological target: T1, IDH2-R140Q mutant enzyme (Homo sapiens, UniProt P48735, R140Q); assay: Inhibitory activity of compounds on IDH2-R140Q enzyme in vitro (diaphorase/resazurin fluorescence); format: biochemical; conditions: R140Q IC50, IDH2-R140Q, pre-incubated 16 h with enzyme and NADPH, reaction 1 h with α-ketoglutarate
T1 construct: purchased BPS 71100-1
T1 sequence (P48735 40-452 R140Q): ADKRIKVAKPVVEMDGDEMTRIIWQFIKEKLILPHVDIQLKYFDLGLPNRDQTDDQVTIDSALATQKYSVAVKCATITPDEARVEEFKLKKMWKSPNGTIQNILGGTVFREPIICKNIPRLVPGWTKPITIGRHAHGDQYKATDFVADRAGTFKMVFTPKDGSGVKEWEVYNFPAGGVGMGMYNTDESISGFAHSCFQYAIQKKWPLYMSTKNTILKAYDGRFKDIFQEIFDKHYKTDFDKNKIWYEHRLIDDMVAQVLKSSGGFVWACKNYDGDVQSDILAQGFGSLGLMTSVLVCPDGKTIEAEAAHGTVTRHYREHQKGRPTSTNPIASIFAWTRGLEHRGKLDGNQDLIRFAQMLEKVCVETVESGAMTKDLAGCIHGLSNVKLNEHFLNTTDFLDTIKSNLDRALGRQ

[2] = system: human acute myeloid leukemia AM7577 cells; assay: Human acute myeloid leukemia NOD/SCID animal model: survival; format: in vivo, NOD/SCID mice; conditions: gavage once a day for 14 days, 14 days after administration
Description: 1.1 Compounds to be tested: the compounds of the present disclosure prepared in the above examples, each of which was formulated into a solution in corresponding concentrations by using a vehicle (2% absolute ethanol:10% Solutol™: 88% physiological saline (v/v/v)).
1.2 Cells: human acute myeloid leukemia AM7577 cells, provided by Sino-American Crown Biotechnology (Beijing) Co., Ltd
1.4 Animals: NOD/SCID mice, 3-4 weeks old, female, purchased from Beijing Huakangkang Biotechnology Co., Ltd
Each mouse was inoculated through the tail vein at an amount of 2×10^6 cells resuspended in 100 uL of PBS.
Orbital blood samples of animals were collected weekly, labeled with human CD45, and the percentage of positive cells was detected. The animals were grouped when the percentage of peripheral blood CD45+ cells reached 5%. The proportion of peripheral blood CD45+ cells reached 5% on the 40th day after inoculation. After grouping, drugs were administered by gastric gavageonce once a day for 14 days.
The mortality rate of the animals after administration and the survival period of the surviving animals were observed.

CC(C)(O)CNc1nc(Nc2ccnc(C(F)(F)F)c2)nc(-c2cccc(C(F)(F)F)n2)n1 [AG-221, 2-methyl-1-(4-(6-(trifluoromethyl)pyridin-2-yl)-6-(2-(trifluoromethyl)pyridin-4-ylamino)-1,3,5-triazin-2ylamino)propan-2-ol, reference compound]
IC50 [1]: 21 nM | Numbers of surviving animals ([2]; 15 mg/kg, 8 animals per group): 6 | Numbers of surviving animals ([2]; 45 mg/kg, AG-221 group 4 animals, Example 22B group 8): 3
